Measurements from patent publication US20150126465A1, “PROCESS FOR PRODUCING DERIVATIVES OF PYROSTEGIA VENUSTA, DERIVATIVES OF PYROSTEGIA VENUSTA, PHARMACEUTICAL COMPOSITIONS AND ITS USES” (priority 2011, published 2015).
In brackets after ≈: the same amount, converted by molar mass. Read-outs that look alike come from different tables or passages of the source. One block for each compound: values may come before it.

How the values were obtained:
[1] = test system: Candida tropicalis USP B3; test: MIC by microdilution (CLSI M27-A2); type: cell-based; set-up: key: —: There was no growth inhibition
[2] = test system: Candida tropicalis USP 1658; test: MIC by microdilution (CLSI M27-A2); type: cell-based; set-up: key: —: There was no growth inhibition
[3] = test system: Candida parapsilosis USP 1933; test: MIC/CFM by microdilution (CLSI M27-A2); type: cell-based; set-up: key to MIC: —: There was no growth inhibition
[4] = test system: Candida albicans USP 1565; test: MIC by microdilution (CLSI M27-A2); type: cell-based; set-up: key: —: There was no growth inhibition
[5] = test system: Candida guilhermondii USP; test: MIC/CFM by microdilution (CLSI M27-A2); type: cell-based; set-up: key to MIC: —: There was no growth inhibition
Candida krusei ATCC 6258 = test: MIC/CFM by microdilution (CLSI M27-A2); type: cell-based; set-up: key to MIC: —: There was no growth inhibition
[6] = test system: Trichophyton rubrum ATCC MYA-3108; test: MIC by microdilution, filamentous fungi (CLSI M38-A); type: cell-based; settings: Table 11, Trichophyton rubrum ATCC MYA-3108
[7] = test system: Microsporum canis ATCC 32903; test: as above; type: cell-based; settings: Table 13, Microsporum canis ATCC 32903, 7 days, 28° C.
Procedure: (§1) Pure substances termed P1 and P2 previously dissolved in 20% DMSO, were diluted in RPMI medium, with final concentrations of 96 μg.mL-1. […] Cultures of filamentous fungi described below were inoculated in Agar-Batata Dextrose medium and inoculated for 7 days, at 28° C. Colonies of cultures inoculated for 7 days in an oven at 28° C. were shrouded with 0.85% saline solution, scraped and then transferred to conical tubes. After resting for 5 minutes, the supernatant was transferred to new conical tubes for subsequent quantification in spectrophotometer, at 530 nm, with the transmittance adjustment of 80-82% for A. niger and 70% for other microorganisms. After adjustment, there was a 1:50 dilution in RPM. The determination of Minimum Inhibitory Concentration was performed after 7 days, at 28° C. After the incubation period, aliquots of 96-well plates were transferred to Petri plates with Potato Dextrose Agar, to determine the Minimum Fungicidal Concentration. Plates were inoculated for more 7 days, at 28° C.

[8] = test system: Phomopsis longicolla (soy isolate); test: as above; type: cell-based; settings: Table 13, Phomopsis longicolla- soy, 7 days, 28° C.
Procedure: as §1

[9] = test system: Trichophyton menthagrophyton ATCC 9533; test: as above; type: cell-based; settings: Table 13, Trichophyton menthagrophyton ATCC 9533, 7 days, 28° C.
Procedure: as §1

[10] = test system: Candida albicans ATCC 10231; test: MIC/CFM by microdilution (CLSI M27-A2); type: cell-based
[11] = test system: Candida parapsilosis ATCC 22019; test: MIC/CFM by microdilution (CLSI M27-A2); type: cell-based
Candida krusei USP 2223 = test: MIC by microdilution (CLSI M27-A2); type: cell-based; set-up: key: —: There was no growth inhibition
[12] = test system: Candida albicans OF-M3-20; test: MIC/CFM by microdilution (CLSI M27-A2); type: cell-based
Procedure: (§2) Pure substances termed P1 and P2 previously dissolved in 20% DMSO, were diluted in RPMI medium, with final concentrations of 96 μg.mL-1. […] The same was also tested individually, diluted in RPMI medium, with initial concentration of 1 μL.mL-1. […] Cultures of Candida sp. were prepared and standardized in […] saline solution at 0.85%. For inoculums standardization, a spectrophotometer equipment was used, with wavelength at 530 nm and absorbance adjustment between 0.130 and 0.150, having as white the saline solution free of inoculum or any other contaminant, corresponding to concentrations of 10^6 CFU/mL. In this condition the inoculum “mother” was diluted 50 times and from this inoculum “child” the dilution was performed 20 times to obtain a standard inoculum in 10^3 cells per well. […] To aid in the growth view, were added to the wells dye 50 μL 2,3,5-triphenyltetrazolium chloride (TTC) at 5 mg.mL “1, being performed the readings after 4 hours of incubation. Prior to the addition of dye, aliquots of 96-well plate were transferred to Petri with Agar-Sabouraud Dextrose to determine the Minimum Fungicidal Concentration. Plates were incubated for 24 hours at 35° C.

[13] = test system: Candida albicans OF-M7-19; test: MIC/CFM by microdilution (CLSI M27-A2); type: cell-based
Procedure: as §2

Candida albicans USP 1 = test: MIC/CFM by microdilution (CLSI M27-A2); type: cell-based
Procedure: as §2

C. Albicans USP 2 = test: MIC/CFM against Candida sp. strains; type: cell-based; settings: Table 14, C. Albicans USP 2
Candida glabrata ATCC = test: MIC/CFM against Candida sp. strains; type: cell-based; settings: Nakaseomyces glabratus; Table 14, Candida glabrata ATCC
DPPH antioxidant test = type: biochemical; settings: 517 nm
Procedure: The antioxidant activity evaluation was performed through DPPH test.
Extract flower ethanol samples and PV6.7 were dissolved in methanol in concentrations of 1 mg.mL-1, 500 μg, mL-1, 250 μg, mL-1, 125 μg, mL-1, 62.5 μg, mL-1 and 31.25 μg, mL-1. As control Metabissulfito and Rutin were used in the same conditions of the samples.
Around 0.002 g of DPPH was dissolved in 50 mL of methanol. Then, it was verified the solution absorbance in spectrophotometer, in 517 nm, which must be below 1.
In a plastic Eppendorf, it was added 950 μL of methanolic solution of DPPH and 50 μL of the sample. As white, it was used in the place of the sample 50 μL of methanol. The samples were then incubated for 15 minutes at 30° C. After this period, the solutions were transferred to cuvettes and performed the readings at 517 nm, zeroing the spectrophotometer with methanol.
% inhibition=B−A/B×100, being A=sample, and B=White

[14] = Table 11, C. Tropicalis USP 1658
[15] = Table 11, C. parapsilosis USP 1933

SMILES: C[C@@H]1[C@H](O)[C@@H](C)/C=C/C=C/C=C/C=C/C=C/C=C/C=C/[C@H](O[C@@H]2O[C@H](C)[C@@H](O)[C@H](N)[C@@H]2O)C[C@@H]2O[C@](O)(C[C@@H](O)C[C@@H](O)[C@H](O)CC[C@@H](O)C[C@@H](O)CC(=O)O[C@H]1C)C[C@H](O)[C@H]2C(=O)O [AnfotericinaB, Anfotericina B]
MIC ([1]; Table 11, C. Tropicalis USP B3): 2 µg/mL (≈ 2.16 µM) | MIC [2, 14]: 1 µg/mL (≈ 1.08 µM) | MIC [3, 15]: 2 µg/mL (≈ 2.16 µM) | MIC ([4]; Table 11, C. Albicans USP 1565): 1 µg/mL (≈ 1.08 µM) | MIC ([5]; Table 11, C. guilhermondii USP): 2 µg/mL (≈ 2.16 µM) | MIC (Candida krusei ATCC 6258; Table 11, C. krusei ATCC 6258): 1 µg/mL (≈ 1.08 µM) | MIC [6]: 1 µg/mL (≈ 1.08 µM) | MIC [7]: 1.56 µg/mL (≈ 1.69 µM) | MIC [8]: 0.5 µg/mL (≈ 0.541 µM) | MIC [9]: 4 µg/mL (≈ 4.33 µM)

SMILES: O=S([O-])S(=O)(=O)[O-].[Na+].[Na+] [Metabissulfito]
Antioxidant Activity Percentage (DPPH antioxidant test; sample 31.25 μg · mL^−1, 15 minutes at 30° C.): 0% | Antioxidant Activity Percentage (DPPH antioxidant test; sample 62.5 μg · mL^−1, 15 minutes at 30° C.): 0% | Antioxidant Activity Percentage (DPPH antioxidant test; sample 125 μg · mL^−1, 15 minutes at 30° C.): 1.33% | Antioxidant Activity Percentage (DPPH antioxidant test; sample 250 μg · mL^−1, 15 minutes at 30° C.): 4.62% | Antioxidant Activity Percentage (DPPH antioxidant test; sample 500 μg · mL^−1, 15 minutes at 30° C.): 8.63% | Antioxidant Activity Percentage (DPPH antioxidant test; sample 1 mg · mL^−1, 15 minutes at 30° C.): 15.3%

Further lines, with some results ahead:

MIC ([10]; Table 12, C. albicans ATCC 10231, 48 h, 35° C.): 32 µg/mL (≈ 60.2 µM) | MIC ([2]; Table 12, C. tropicalis USP 1658, 48 h, 35° C.): *<4 μg · mL^−1 | MIC ([11]; Table 12, C. parapsilosis ATCC 22019, 48 h, 35° C.): <0.125 µg/mL | MIC ([3]; Table 12, C. parapsilosis USP 1933, 48 h, 35° C.): <0.125 µg/mL | MIC ([4]; Table 12, C. albicans USP 1565, 48 h, 35° C.): <0.125 µg/mL | MIC ([5]; Table 12, C. guilhermondii USP, 48 h, 35° C.): 0.125 µg/mL (≈ 0.235 µM) | MIC (Candida krusei ATCC 6258; Table 12, C. krusei ATCC 6258, 48 h, 35° C.): <0.125 µg/mL | MIC (Candida krusei USP 2223; Table 12, C. krusei USP 2223, 48 h, 35° C.): 2 µg/mL (≈ 3.76 µM) | MIC ([12]; Table 12, C. albicans OF M3-20, 48 h, 35° C.): <0.125 µg/mL | MIC ([13]; Table 12, C. albicans OF M7-19, 48 h, 35° C.): <0.125 µg/mL | MIC (Candida albicans USP 1; Table 12, C. albicans USP 1, 48 h, 35° C.): <0.125 µg/mL | MIC [7]: 4 µg/mL (≈ 7.53 µM) | MIC [8]: <0.125 µg/mL | MIC [9]: 2 µg/mL (≈ 3.76 µM)
SMILES: CC(=O)N1CCN(c2ccc(OCC3COC(Cn4ccnc4)(c4ccc(Cl)cc4Cl)O3)cc2)CC1 (stereo not drawn) [Cetoconazol]

MIC ([1]; Candida tropicalis, USPB3, Table 11, C. Tropicalis USP B3, read-out: MIC): 1 µg/mL (≈ 3.27 µM) | MIC ([2]; Candida tropicalis, USP1658, Table 11, C. Tropicalis USP 1658, read-out: MIC): < 1 µg/mL | MIC ([3]; Lodderomyces parapsilosis, USP1933, Table 11, C. parapsilosis USP 1933, read-out: MIC): < 1 µg/mL | MIC ([4]; Candida albicans, USP1565, Table 11, C. Albicans USP 1565, read-out: MIC): < 1 µg/mL | MIC ([5]; Candida, Table 11, C. guilhermondii USP, read-out: MIC): < 1 µg/mL | MIC (Candida krusei ATCC 6258; Pichia kudriavzevii, ATCC6258, Table 11, C. krusei ATCC 6258, read-out: MIC): 8 µg/mL (≈ 26.1 µM) | MIC (Candida krusei USP 2223; Pichia kudriavzevii, ATCC2223, Table 11, C. krusei ATCC 2223, read-out: MIC): 64 µg/mL (≈ 209 µM) | MIC ([6]; read-out: MIC): 16 µg/mL (≈ 52.2 µM)
SMILES: OC(Cn1cncn1)(Cn1cncn1)c1ccc(F)cc1F [Fluconazol]

MIC ([10]; Candida albicans, ATCC10231, Table 14, C. Albicans ATCC 10231, read-out: MIC): 3 µg/mL (≈ 4.8 µM) | MIC ([1]; Candida tropicalis, USPB3, Table 14, C. Tropicalis UPS B3, read-out: MIC): 6 µg/mL (≈ 9.61 µM) | MIC ([11]; Lodderomyces parapsilosis, ATCC22019, Table 14, C. parapsilosis ATCC 22019, read-out: MIC): 1.5 µg/mL (≈ 2.4 µM) | MIC ([3]; Lodderomyces parapsilosis, USP1933, Table 14, C. parapsilosis USP 1933 ATCC, read-out: MIC): 3 µg/mL (≈ 4.8 µM) | MIC ([5]; Table 14, Candida guilhermondi USPATCC, read-out: MIC): 1.5 µg/mL (≈ 2.4 µM) | MIC (Candida krusei ATCC 6258; Pichia kudriavzevii, ATCC6258, Table 14, C. krusei ATCC, read-out: MIC): 1.5 µg/mL (≈ 2.4 µM) | MIC (Candida krusei USP 2223; Pichia kudriavzevii, USP2223, Table 14, C. krusei USP 2223, read-out: MIC): 1.5 µg/mL (≈ 2.4 µM) | MIC ([12]; Candida albicans, OFM320, Table 14, C. Albicans OF M3-20, read-out: MIC): 3 µg/mL (≈ 4.8 µM) | MIC ([13]; Candida albicans, OFM719, Table 14, C. Albicans OF M7-19, read-out: MIC): 0.75 µg/mL (≈ 1.2 µM) | MIC (Candida albicans USP 1; Candida albicans, USP1, Table 14, C. Albicans USP 1, read-out: MIC): 1.5 µg/mL (≈ 2.4 µM) | MIC (C. Albicans USP 2): 3 µg/mL (≈ 4.8 µM) | MIC (Candida glabrata ATCC): 0.375 µg/mL (≈ 0.6 µM)
SMILES: CC1OC(OC2C(O)C(COC(=O)/C=C/c3ccc(O)c(O)c3)OC(OCCc3ccc(O)c(O)c3)C2O)C(O)C(O)C1O (stereo not drawn) [Fraction P3, iso-verbascoside]
MFC ([5]; Table 14, Candida guilhermondi USPATCC, read-out: CFM (Minimum Fungicidal Concentration)): 6 µg/mL (≈ 9.61 µM) | MFC (Candida krusei ATCC 6258; Pichia kudriavzevii, ATCC6258, Table 14, C. krusei ATCC, read-out: CFM (Minimum Fungicidal Concentration)): 12 µg/mL (≈ 19.2 µM)

MIC ([1]; Table 11, C. Tropicalis USP B3): — | MIC [2, 14]: — | MIC [3, 15]: — | MIC ([4]; Table 11, C. Albicans USP 1565): — | MIC ([5]; Table 11, C. guilhermondii USP): — | MIC (Candida krusei ATCC 6258; Table 11, C. krusei ATCC 6258): — | MIC (Candida krusei USP 2223; Table 11, C. krusei ATCC 2223): — | MIC ([6]; read-out: MIC): 0.25 µg/mL (≈ 0.858 µM)
SMILES: CN(C/C=C/C#CC(C)(C)C)Cc1cccc2ccccc12 [Terbinafina ®, Terbinafina]
